Test results: patent US20170240522A1, “BENZOTHIOPHENE, BENZYLOXYBENZYLIDENE AND INDOLINE DERIVATIVES USEFUL FOR THE TREATMENT OF TUBERCULOSIS” (priority 2014, published 2017)

Test system: Mtb transcriptome
Assay: RNA-seq and qRT-PCR of compound-treated Mtb
Format: cell-based, Mycobacterium tuberculosis
Conditions: RNA-seq, 5 μM
Method: For the transcriptomic studies, bacteria were grown under the same conditions as for protein secretion assays. Drug exposure time was 8 hours with 5 μM of compound for RNA-seq experiments and confirmatory qRT-PCR. RNA was extracted with Trizol (Invitrogen) and treated with DNase I (Roche) prior to library preparation or generation of the cDNA template. cDNA was synthesized using the RevertAid First Strand cDNA Synthesis Kit (Fermentas) using random hexamer primer. cDNA corresponding to 10 ng of input RNA was used in each RT-PCR reaction supplemented with specific primer pairs (200 nM each) listed in Table S4 and SYBR-Green master mix (Applied Biosystems). Quantitative RT-PCR reactions were performed with the 7900HT Fast Real-Time PCR System (Applied Biosystems) with the following parameters: 50° C. for 2 min, 95° C. for 10 min, followed by 40 cycles of 95° C. for 15 s and 60° C. for 60 s. Melt curve analysis was used to confirm specific amplification for each primer pair. Unpaired Student's T-tests were used for statistical analyses.
For the RNA-seq library preparation 100 ng of total RNA were used in the TruSeq Stranded mRNA LT kit, according to the instructions provided by the manufacturer (Illumina). A small aliquot was analyzed on Qubit and Fragment Analyzer prior to sequencing on Illumina HiSeq using the TruSeq SR Cluster Generation Kit v3 and TruSeq SBS Kit v3. Data were processed with the Illumina Pipeline Software v1.82. RNA-seq data were deposited in the Gene Expression Omnibus (GEO) server at the National Center for Biotechnology Information (NCBI).
• All analyses in this study were carried out using the M. tuberculosis H37Rv annotation from the TubercuList database (http://tuberculist.epfl.ch/) (Lew et al., 2011). There are 4019 protein coding sequences (CDS) currently annotated in the genome, 73 genes encoding for stable RNAs, small RNAs and tRNAs. In order to quantify protein occupancy and transcription across the entire genome, 3080 intergenic regions (regions flanked by two non-overlapping CDS) were included, resulting in a total of 7172 features. • The single-ended sequence reads generated from RNA-seq experiments were aligned to the M. tuberculosis H37Rv genome (NCBI accession NC_000962.2) using Bowtie2 with default parameters (Langmead and Salzberg, 2012). Read counts for all annotated features were obtained with the htseq-count program (http://www.huber.embl.de/users/anders/HTSeq/doc/count.html). Regions where genes overlapped were excluded from counting. Reads spanning more than one feature were counted for each feature. Since the RNA library was strand-specific, the orientation of sequence reads had to correspond to the orientation of annotated features to be counted. Analysis of differential gene expression was carried out using the DESeq package (Anders and Huber, 2010).

Question: For `CSC(=S)N/N=C(\C)c1ccc(OCc2ccc(F)cc2F)cc1` [BBH7, N′-{1-[4-(2,4-Difluoro-benzyloxy)-phenyl]ethylidene}-hydrazinecarbodithioic acid methyl ester], which “upregulated genes (number)” value is on record?
Answer: 121 genes

Question: And the “upregulation of the metallothionein mymT” value?
Answer: 20 fold

Question: And the “differentially regulated genes (number)” value (8 hours)?
Answer: 144 genes
